test: gradient 5% acetonitrile 3 min, to 50% in 2 min, to 85% in 15 min, held 3 min, 100 µL/min; conditions: column: Zorbax Extend-C18 2.1 x 50 mm; eluents: water / acetonitrile, 0.1% formic acid
Outline: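 Retention time was recorded from adduct peaks, which were picked computationally and each inspected manually. Pure standards ran in mixtures of ~100 molecules on HPLC coupled to a quadrupole time-of-flight mass spectrometer, in positive and negative ionization mode, through a Zorbax Extend-C18 column (2.1 × 50 mm, 1.8 μm) at 100 μL/min. Eluents were water and acetonitrile, each with 0.1% formic acid.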

| RP-LC retention time [s] | Compound |
| --- | --- |
| 824 | O=c1n(Cc2ccccc2Cl)nc2ccc(S(=O)(=O)N3CCOCC3)cn12 |
| 932 | CCOc1ccc(OCC)c(NS(=O)(=O)c2cc(-c3c(CC)noc3NC(C)=O)ccc2C)c1 |
| 760 | COc1ccc(OC)c2c1cc1n2CC(C)(C(=O)NC2CCCCCCC2)N(CCN(C)C)C1=O (centres undefined) |
| 726 | COc1ccc(N2CCn3c(SCC(=O)Nc4ccccc4C(F)(F)F)nnc32)cc1 |
| 632 | O=S(=O)(c1ccc(-c2nnc(C3CC3)o2)o1)N1CCN(c2ccccn2)CC1 |
| 677 | COc1ccc(OC)c(C(O)CN2CCN(c3ccccc3F)CC2)c1 (centres undefined) |
| 994 | CCOc1ccc(Nc2c(-c3ccc(SC)cc3)nc3cnccn23)cc1 |
| 904 | COc1ccc(-c2ccnc3nc(CC(C)C)nn23)c(F)c1 |
| 746 | COCCn1ccc2nc(C)c(C(=O)Nc3cccc(SC)c3)cc2c1=O |
| 937 | CCOC(=O)c1ccc(NC(=O)c2cc(C)nn2-c2ccccc2)cc1 |
| 631 | Cc1noc([C@@H]2CN(C(=O)c3ccc(Cc4c(C)noc4C)o3)C[C@H]2C(N)=O)n1 |
| 615 | CN(CC1(C)CCOCC1)S(=O)(=O)c1cn(C)cn1 |
| 615 | CCCCNC(=O)CSc1cc(N2CCC(C(=O)NC3CC3)CC2)ncn1 |
| 1160 | CCOc1cccc(=O)c2c(C)n(-c3nc(-c4ccc(OC)cc4)c(C)s3)c(C)c12 |
| 919 | CN(Cc1ccco1)C(=O)Cn1cccc1-c1nnc(-c2ccccc2)o1 |
| 693 | O=C(C1CCC1)N1CCC(c2noc(-c3ccncc3)n2)C1 (centres undefined) |
| 746 | CCOCCCNC(=O)c1nc(Nc2ccc(C)cc2)c2ccccc2n1 |
| 1120 | CCCn1cc(C(=O)Nc2cccc(C)c2)c(S(=O)(=O)N2CCSCC2)n1 |
| 1330 | Cc1cccc(N2CCN(c3ccc4cc(S(=O)(=O)N5CCCCC5C)ccc4n3)CC2)c1C (centres undefined) |
| 653 | N#Cc1cccc(NC(=O)COc2ccc(-c3nnc4n3CCCC4)cc2)c1 |
| 781 | CCN1C(=O)CCC2(C(=O)Nc3ccc(C)cc3)CCCC=C12 (centres undefined) |
| 911 | Cc1ccc(CCNC(=O)C2CCCN(C(=O)c3cc4sccc4n3C)C2)cc1 (centres undefined) |
| 915 | O=C(NCc1ccc(-c2noc(CCc3ccccc3)n2)s1)C1CC1 |

| RP-LC retention time [s] | Compound |
| --- | --- |
| 804 | Cc1cc(C)cc(C(=O)N2CCC(n3c(-c4ccoc4)nc4cccnc43)C2)c1 (centres undefined) |
| 1270 | COc1ccccc1N1CCN(c2cc(SCC(=O)Nc3cccc(Cl)c3F)ncn2)CC1 |
| 960 | COc1ccc(NC(=O)C2CCN(S(=O)(=O)c3cc(-c4noc(C5CC5)n4)cs3)CC2)cc1 |
| 772 | Cc1nnc(NC(=O)CSc2nnc(-c3ccc(Cl)cc3)o2)s1 |
| 802 | CCOc1ccc2nc(C(=O)NC(C)(C)C)cn2n1 |
| 665 | Oc1ccc(Nc2ccnc3cc(Cl)ccc23)cc1 |
| 733 | O=C(NCc1ccco1)c1ccc(Nc2c(-c3ccccc3)nc3cnccn23)cc1 |
| 852 | COc1ccc(NC(=O)c2cccc(F)c2)c2ccccc12 |
| 1200 | Clc1nnc(NC2CCCCC2)c(Cl)c1Cl |
| 1030 | O=C1CC(c2nc(-c3ccc(C(F)(F)F)cc3)no2)CN1c1ccc2c(c1)OCCO2 (centres undefined) |
| 716 | CCn1ccc2sc(C)c(C(=O)NCc3cc(OC)ccc3OC)c2c1=O |
| 735 | O=C(CC1c2ncccc2C(=O)N1Cc1ccc(F)cc1)NCc1cc(F)ccc1F (centres undefined) |
| 590 | O=C(Nc1cccc(-c2nnc3n2CCCC3)c1)c1cc(C2CC2)[nH]n1 |
| 648 | Cc1noc(C)c1CNC(=O)c1ccccn1 |
| 603 | O=C(NCCCN1CCCC1)c1nnc(-c2ccc(S(=O)(=O)N3CCCC3)cc2)o1 |
| 1100 | O=C(C1CC1)N1CCN(c2nc(CN3CCCCCC3)cs2)CC1 |
| 614 | COc1ccc(-c2cc3n(n2)CCCN(C(=O)c2ccc4nc[nH]c4c2)C3)cc1 |
| 1140 | COc1cccc(-c2cc3c(=O)n(Cc4nc(-c5ccc(Br)cc5)no4)ccn3n2)c1 |
| 949 | CCc1ccc(OCc2nc(CCN(C)C(=O)Nc3ccc(OC)cc3)no2)cc1 |
| 576 | CCn1cc(S(=O)(=O)N2CC(Cn3c(C)cnc3-c3cccnc3)C2)cn1 |
| 874 | Cc1ccc(N2CC(c3nc(-c4ccc(CNC(=O)C5CC5)s4)no3)CC2=O)cc1C (centres undefined) |
| 603 | Fc1cc(CN2CCC(Cc3nnc(C4CCOCC4)o3)C2)ccc1Cl (centres undefined) |
| 826 | COc1ccc(CN(C(=O)c2oc3ccccc3c2C)C2CCS(=O)(=O)C2)cc1OC (centres undefined) |

| RP-LC retention time [s] | Compound |
| --- | --- |
| 814 | Cc1ccc(C(=O)NCC(=O)Nc2cc(-c3nc(C)cs3)sc2C)cc1 |
| 916 | Cc1ccc(S(=O)(=O)N2C(=O)CCC2C(=O)N(C)C2CCCCC2)cc1 (centres undefined) |
| 740 | O=C1COc2ccc(S(=O)(=O)N3CCC(C(=O)NCCc4ccccc4)CC3)cc2N1 |
| 1090 | CCCN1C(=O)COc2cc(-c3noc(C(=O)NCCCc4ccccc4)n3)ccc21 |
| 735 | CC(=O)Nc1nc(-c2ccc(S(=O)(=O)N3CCOCC3)cc2)cs1 |
| 815 | O=C(NC1CCCCCC1)C1CCCN(S(=O)(=O)c2c[nH]c(C(=O)N3CCCC3)c2)C1 (centres undefined) |
| 835 | Cc1nn(-c2ccc(Cl)cc2)c(C)c1S(=O)(=O)N1CCC(C(=O)NC2CC2)CC1 |
| 874 | CC(=O)N1c2ccc(S(=O)(=O)NCc3ccc4c(c3)CCN4C(=O)CC(C)C)cc2CC1C (centres undefined) |
| 733 | Cc1ccc(CN2CCN(CC(=O)Nc3ccc4c(c3)OCCO4)C(=O)C2=O)cc1 |
| 616 | O=C(c1ccc2c(c1)OCO2)N1CCN(c2nnc3ccccn23)CC1 |
| 787 | Cc1ccccc1CC(=O)N1CCC2(CC1)NC(=O)c1cc(F)ccc1N2C |
| 937 | O=C(Cn1cccc1-c1nnc(C2CCC2)o1)NCc1cccc(Br)c1 |
| 641 | O=C(NC1CC1)c1cn(CCC2CCCCN2C(=O)c2ccoc2)nn1 (centres undefined) |
| 603 | CN(C)CCNC(=O)CS(=O)Cc1cnn(-c2ccccc2)c1-n1cccc1 (centres undefined) |
| 1220 | O=C1COc2cc(Cl)ccc2N1Cc1nc(-c2ccc(OC(F)(F)F)cc2)no1 |
| 1050 | Cc1ccc2[nH]cc(CCNC(=O)Nc3ccc(Cl)c(Cl)c3)c2c1 |
| 588 | O=C1CN(c2ccccc2NC(=O)c2ccc[nH]c2=O)CCN1 |
| 827 | COc1cccc(-c2nc3nc(C)c(CCC(=O)NC4CCCCC4)c(C)n3n2)c1 |
| 648 | O=C(Nc1ccc(-c2cn3cccnc3n2)cc1)C1CCCC1 |
| 993 | CC(C)Cc1cc(-c2nn3c(-c4cccc(F)c4)nnc3s2)n[nH]1 |
| 589 | O=C(c1c[nH]c2ncccc12)N1CCCC1 |
| 927 | Cc1nc2cc(-c3noc(-c4ccco4)n3)ccc2n(C2CCCC2)c1=O |
| 836 | COCCCNC(=O)C1c2ccccc2C(=O)N(C2CCCC2)C1c1cccs1 (centres undefined) |

| RP-LC retention time [s] | Compound |
| --- | --- |
| 882 | Cn1nccc1C(=O)Nc1c(-c2cccc(F)c2)nc2sc(N3CCCCC3)nn12 |
| 970 | CS(=O)(=O)Nc1cccc(NC(=O)Cn2cccn2)c1 |
| 847 | CCCS(=O)(=O)c1nc2ccc(NS(=O)(=O)c3ccc4c(c3)oc(=O)n4C)cc2s1 |
| 732 | COCCCNC(=O)c1ccc2c(c1)N(Cc1ccccc1)C(=O)CO2 |
| 994 | CCc1ccc(S(=O)(=O)NCCc2csc3nc(-c4cccc(F)c4)nn23)s1 |
| 903 | O=C(Cn1nc(C(=O)N2CCCC2)c2ccccc21)Nc1cccc(Br)c1 |
| 769 | Cc1cnc2c(c1SCC(=O)N(C)c1ccccc1)c(=O)n(C)c(=O)n2C |
| 805 | CN1C(=O)c2cc(C(=O)NCc3ccc(Cl)cc3)nn2CC1(C)C(=O)NCc1ccc(F)cc1 (centres undefined) |
| 823 | CCOC(=O)c1nc(NCc2ccc(C)cc2)c2ccccc2n1 |
| 645 | CCN1CCCC1CNC(=O)c1nnc(-c2ccc(S(=O)(=O)N3CCCCC3)cc2)o1 (centres undefined) |
| 1060 | CCOC(=O)c1noc2ncnc(NCCc3ccc(OCC)cc3)c12 |
| 722 | COc1ccc(NC(=O)N2CCC3(CC2)NC(=O)c2cc(Cl)ccc2N3C)cc1OC |
| 950 | O=C(Cn1cnc2c(sc3nc(-c4ccccc4)ccc32)c1=O)NCc1ccc2c(c1)OCO2 |
| 701 | CCCOC(=O)c1cnc2nc(C)ccc2c1NCc1ccc(OC)c(OC)c1 |
| 567 | COC(=O)c1ccc(C(=O)NCC2CCN(Cc3ccccc3SC)CC2)cc1 |
| 639 | CCc1cc(=O)n(CC(=O)Nc2ccccc2C)c(N)n1 |
| 731 | CC(C(=O)NC1CCN(Cc2ccccc2)CC1)n1c(=O)c(C(F)(F)F)nc2ccccc21 (centres undefined) |
| 720 | Cc1ccc(-n2c(-c3ccc(Cl)cc3)cn3c4c(=O)n(C)c(=O)n(C)c4nc23)cc1C |
| 845 | CCOC(=O)N1CCC2(CC1)OC(=O)C(C)=C2C(=O)Nc1cccc(OC)c1 |
| 613 | C#CCN[C@@H]1CCc2ccccc21 |

Reference: the METLIN SMRT retention time set (Domingo-Almenara et al. 2019)
